Reference: ChEMBL document CHEMBL3792301, “Isatin derivatives with activity against apoptosis-resistant cancer cells” (Bioorg Med Chem Lett, 2016)

Experiments:
LoVo = assay: Antiproliferative activity against human LoVo cells after 72 hrs by MTT assay; format: functional, cell-based
SK-MEL-28 = assay: Antiproliferative activity against apoptosis resistant human SK-MEL-28 cells after 72 hrs by MTT assay; format: functional, cell-based; conditions: SK-MEL-28, 72 h
[1] = Antiproliferative activity against apoptosis resistant human OE21 cells after 72 hrs by MTT assay; format: functional, cell-based; conditions: OE21, 72 h
MCF7 = assay: Antiproliferative activity against apoptosis sensitive human MCF7 cells after 72 hrs by MTT assay; format: functional, cell-based; conditions: MCF7, 72 h
[2] = Antiproliferative activity against apoptosis sensitive mouse B16F10 cells after 72 hrs by MTT assay; format: functional, cell-based; conditions: B16-F10, 72 h
A549 = assay: Antiproliferative activity against apoptosis resistant human A549 cells after 72 hrs by MTT assay; format: functional, cell-based; conditions: A549, 72 h
[3] = Antiproliferative activity against apoptosis resistant human U373 cells after 72 hrs by MTT assay; format: functional, cell-based, U-373MG ATCC; conditions: U373 MG
[4] = Antiproliferative activity against apoptosis sensitive human Hs683 cells after 72 hrs by MTT assay; format: functional, cell-based; conditions: Hs 683, 72 h
[5] = Antiproliferative activity against apoptosis sensitive human PC3 cells after 72 hrs by MTT assay; format: functional, cell-based; conditions: PC-3, 72 h

| Structure (SMILES) | IC50 (LoVo) [µM] | IC50 (SK-MEL-28) [µM] | IC50 [1] [µM] | IC50 (MCF7) [µM] | IC50 [2] [µM] | IC50 (A549) [µM] | IC50 [3] [µM] | IC50 [4] [µM] | IC50 [5] [µM] |
| --- | --- | --- | --- | --- | --- | --- | --- | --- | --- |
| O=C1Nc2ccc(Br)cc2/C1=C1/Nc2ccccc2C1=O | 12 | > 100 | 3.8 | 37.3 | 3.8 | > 100 | 8.6 | 14.1 | > 100 |
| O=C1Nc2ccc(Br)cc2/C1=C1/Cc2ccccc2C1=O | 52.8 | > 100 | 56 | 65.2 | 69.1 | > 100 | 41.4 | 47.3 | > 100 |
| O=C1Nc2c(F)cccc2/C1=C1/Nc2ccccc2C1=O | 42 | > 100 | 29 | 44.8 | 16.3 | > 100 | 45.8 | 38.7 | > 100 |
| O=C1Nc2ccccc2/C1=C1/Cc2ccccc2/C1=N\O | 18.7 | 33.7 | 27.8 | 38.5 | 32.6 | 28.7 | 28 | 22.9 | 33.1 |
| O=C1Nc2ccccc2/C1=C1/Oc2ccccc2C1=O | 4.1 | 23.8 | 25.9 | 0.3 | < 0.01 | 23.3 | 27.7 | 25.7 | 36.1 |
| O=C1NC(=S)S/C1=C1\C(=O)Nc2ccc(Br)cc21 | 52.1 | 53.5 | 62.5 | 82.9 | 0.1 | 36.2 | 41.7 | 93.6 | 44.3 |
| O=C1NC(=O)/C(=C2/C(=O)Nc3ccccc32)S1 | 5.2 | > 100 | 38 | > 100 | 2.8 | 60.7 | 86.4 | 89.7 | 67.5 |
| O=C1Nc2ccccc2/C1=C1/Cc2ccccc2C1=O | 52.6 | > 100 | 25.1 | 70.2 | > 100 | > 100 | > 100 | > 100 | > 100 |
| O=C1NC(=S)N/C1=C1\C(=O)Nc2ccccc21 | 60.2 | 62.9 | 38.7 | 87.8 | 41.6 | 45.8 | 51.9 | 52.9 | 75.5 |
| O=C1Nc2ccc(Br)cc2/C1=C1/Nc2ccccc2/C1=N\O [INDIRUBIN 2] | 6.6 | 17.3 | 3.6 | 5.8 | 0.5 | 7.2 | 8 | 8.4 | 6.8 |
